Reference: ChEMBL document CHEMBL1136959, “Hit-to-lead optimization of pyrrolo[1,2-a]quinoxalines as novel cannabinoid type 1 receptor antagonists” (Bioorg Med Chem Lett, 2009)

biological target: Cannabinoid receptor 1 (Rattus norvegicus, UniProt P20272); test: Displacement of [3H]SR141716A from CB1 receptor in rat cerebellum membrane; assay type: cell membranes
Sequence (P20272 whole entry): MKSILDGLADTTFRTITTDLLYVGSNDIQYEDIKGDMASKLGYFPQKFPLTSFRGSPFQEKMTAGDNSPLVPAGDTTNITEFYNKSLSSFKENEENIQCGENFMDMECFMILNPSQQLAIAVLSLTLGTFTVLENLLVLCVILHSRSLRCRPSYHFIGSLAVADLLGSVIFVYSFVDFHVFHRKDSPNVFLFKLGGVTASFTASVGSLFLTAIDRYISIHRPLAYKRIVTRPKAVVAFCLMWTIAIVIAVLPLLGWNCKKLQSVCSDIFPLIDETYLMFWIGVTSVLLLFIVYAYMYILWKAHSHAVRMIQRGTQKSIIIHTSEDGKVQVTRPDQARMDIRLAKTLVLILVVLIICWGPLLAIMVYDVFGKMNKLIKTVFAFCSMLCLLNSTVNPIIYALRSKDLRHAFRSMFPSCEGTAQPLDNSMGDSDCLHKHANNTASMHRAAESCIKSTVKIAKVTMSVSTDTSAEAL

SMILES	Ki [nM]
CCCCN(CC(=O)N1c2ccccc2-n2cccc2C1c1ccc(OC)cc1)C(=O)COC (centres undefined)	461
CCCCN(CC(=O)N1c2ccccc2-n2cccc2C1c1ccc(F)cc1)C(=O)C(C)Cl (centres undefined)	162
CCCCN(CC(=O)N1c2ccccc2-n2cccc2C1c1ccc(OC)cc1)C(=O)c1ccccc1Cl (centres undefined)	137
CCCCN(CC(=O)N1c2ccccc2-n2cccc2C1c1ccc(OC)cc1)C(=O)c1ccccc1F (centres undefined)	349
CCCCN(CC(=O)N1c2ccccc2-n2cccc2C1c1ccc(OC)cc1)C(=O)c1ccccc1C (centres undefined)	503
CCCCN(CC(=O)N1c2ccccc2-n2cccc2C1c1ccc(OC)cc1)C(=O)C1CCCC1 (centres undefined)	602
CCCCN(CC(=O)N1c2ccccc2-n2cccc2C1c1ccc(OC)cc1)C(=O)C(C)C (centres undefined)	124
CCCCN(CC(=O)N1c2ccccc2-n2cccc2C1c1ccc(OC)cc1)C(=O)C(C)Cl (centres undefined)	46
CCCCN(CC(=O)N1c2ccccc2-n2cccc2C1c1ccc(OC)cc1)C(=O)c1cc(Cl)cc(Cl)c1 (centres undefined)	831
COc1ccc(C2c3cccn3-c3ccccc3N2C(=O)CN(C(=O)C(C)Cl)C(C)C)cc1 (centres undefined)	220
CCCCN(CC(=O)N1c2ccccc2-n2cccc2C1c1ccc(Cl)cc1)C(=O)C(C)Cl (centres undefined)	45
CCCCN(CC(=O)N1c2ccccc2-n2cccc2C1c1ccc(OC)cc1)C(=O)CC (centres undefined)	539
CCCCN(CC(=O)N1c2ccccc2-n2cccc2C1c1ccc(OC)cc1)C(=O)CC(C)C (centres undefined)	236
CCCCN(CC(=O)N1c2ccccc2-n2cccc2C1c1ccc(OC)cc1)C(=O)C1CC1 (centres undefined)	78
CCCCN(CC(=O)N1c2ccccc2-n2cccc2C1c1ccccc1)C(=O)C(C)Cl (centres undefined)	260
CCCCN(CC(=O)N1c2ccccc2-n2cccc2C1c1ccc(OC)cc1)C(=O)C1CCC1 (centres undefined)	214

biological target: Cannabinoid receptor 1 (Rattus norvegicus) (UniProt P20272); test: Displacement of [3H]SR141716A from CB1 receptor in rat cerebellum membrane at 1 uM; assay type: cell membranes
Sequence (P20272 whole entry): as above

SMILES	inhibition [%]
CCCCN(CC(=O)N1c2ccccc2-n2cccc2C1c1ccc(OC)cc1)C(C)=O (centres undefined)	31
COc1ccc(C2c3cccn3-c3ccccc3N2C(=O)CN(C(=O)C(C)Cl)C2CC2)cc1 (centres undefined)	40
COc1ccc(C2c3cccn3-c3ccccc3N2C(=O)CNC(=O)C(C)Cl)cc1 (centres undefined)	25
CCCCN(CC(=O)N1c2ccccc2-n2cccc2C1c1cc(OC)ccc1OC)C(=O)C(C)Cl (centres undefined)	45
CCCCN(CC(=O)N1c2ccccc2-n2cccc2C1CC)C(=O)C(C)Cl (centres undefined)	14
CCCCN(CC(=O)N1c2ccccc2-n2cccc2C1C)C(=O)C(C)Cl (centres undefined)	15
CCCCN(CC(=O)N1c2ccccc2-n2cccc2C1c1ccccc1OC)C(=O)C(C)Cl (centres undefined)	36
COc1ccc(C2c3cccn3-c3ccccc3N2C(=O)CN(C)C(=O)C(C)Cl)cc1 (centres undefined)	46
